The values below come from patent publication US9499493B2, “2,4-pyrimidinediamine compounds and their uses” (Rigel Pharmaceuticals, Inc., priority 2002, dated 2016).

Assay [1] concerns cultured human mast cells (CHMC). Put plainly: CHMC low cell density IgE activation: tryptase assay. Format: cell-based. Particulars: anti-IgE. Summed up: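 Read-out: tryptase released into supernatant, measured by substrate turnover over 30 min at RT. Low-density CHMC (1000-1500 cells/well, per donor degranulation activity) in MT buffer, 1 hr at 37° C, then anti-IgE challenge 30 min at 37° C.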

The test system of assay [2] is FcγRI-mediated degranulation. Put plainly: FcγRI receptor-mediated degranulation (activation with anti-human IgG Fab fragment). Format: cell-based. The conditions noted are these: cells not primed with IgE, activated with rabbit anti-human IgG Fab fragment.
The test system of assay [3] is cultured human mast cells (CHMC). The assay can be described thus: CHMC low cell density ionomycin activation: tryptase assay. The class given is cell-based.
The test system of assay [4] is bone marrow derived mast cells (BMMC). The assay can be described thus: BMMC high cell density IgE activation: hexosaminidase. The class given is cell-based, mouse. Particulars: anti-IgE, second part of TABLE 1, read-out: BMMC anti-IgE hexos. IC50. As for the experimental part: (§1) After sensitizing, cells are counted, pelleted (1000 rpm, 5-10 minutes), and resuspended at 1-3×10^6 cells/ml in MT buffer. Add 100 ul of cell suspension to each well and 100 ul of compound dilutions. The final vehicle concentration is 0.5% DMSO. Incubate at 37° C. (5% CO2) for 1 hour. After 1 hour of compound treatment, stimulate cells with 6× stimulus (60 ng/ml DNP-BSA). Mix wells with the cells and allow plates to incubate at 37° C. (5% CO2) for one hour. After 1 hour incubation, pellet cells (10 minutes, 1000 RPM) and collect 200 ul per well of the supernatant, being careful not to disturb pellet, and transfer to a clean tube or 96-well plate. Place the supernatant plate on ice. During the 4-5 hour step (see next) perform the hexosiminidase assay. Resuspend cell pellet in 240 ul WEI-conditioned media containing 0.5% DMSO and corresponding concentration of compound. Incubate BMMC cells for 4-5 hours at 37° C. (5% CO2). After incubation, pellet cells (1000 RPM, 10 minutes) and collect 225 ul per well and place in −80° C. until ready to perform ELISAS. ELISAS are performed on appropriately diluted samples (determined empirically for each donor cell population so that the sample measurement falls within the standard curve) following the supplier's instructions.
Hexosaminidase assay: In a solid black 96-well assay plate, add 50 uL hexosaminidase substrate (4-methylumbelliferyl-N-acetyl-(3-D-glucosaminide; 2 mM) to each well. Add 50 uL of BMMC cell supernatant (see above) to the hexoseaminidase substrate, place at 37° C. for 30 minutes and read the plate at 5, 10, 15, and 30 minutes on a spectrophotometer.

Assay [5] shares this test system. Put plainly: BMMC high cell density IgE activation: histamine. Format: cell-based, mouse. Particulars: anti-IgE, second part of TABLE 1. As for the experimental part: (§2) Inhibition of degranulation was measured at both low and high cell density by quantifying the release of the granule specific factors tryptase, histamine and hexosaminidase. Inhibition of release and/or synthesis of lipid mediators was assessed by measuring the release of leukotriene LTC4 and inhibition of release and/or synthesis of cytokines was monitored by quantifying TNF-α, IL-6 and IL-13. Tryptase and hexosaminidase were quantified using fluorogenic substrates as described in their respective examples. […] The protocols of the various assays are provided below.
as §1

For assay [6] the test system is unchanged. The assay can be described thus: BMMC high cell density IgE activation: LTC4. Particulars: anti-IgE, second part of TABLE 1. The class given is cell-based, mouse. As for the experimental part: as §2, §1
Assay [7] has the same test system. Put plainly: BMMC high cell density IgE activation: TNFalpha. Format: cell-based, mouse. Particulars: anti-IgE, second part of TABLE 1, read-out: BMMC anti-IgE TNF-alpha IC50. The procedure:
as §2, §1

Assay [8] shares this test system. The assay can be described thus: BMMC high cell density IgE activation: IL-6. Format: cell-based, mouse. The conditions noted are these: anti-IgE, second part of TABLE 1. The procedure: as §2, §1
Assay [9] relates to cultured human mast cells (CHMC). The assay can be described thus: CHMC high cell density IgE activation: TNFalpha. Format: cell-based. Particulars: anti-IgE activation; read-out: CHMC high density TNF-alpha. The procedure:
as §2
(§3) After sensitizing, cells are counted, pelleted (1000 rpm, 5-10 minutes), and resuspended at 1-2×10^6 cells/ml in MT buffer. Add 100 ul of cell suspension to each well and 100 ul of compound dilutions. The final vehicle concentration is 0.5% DMSO. Incubate at 37° C. (5% CO2) for 1 hour. After 1 hour of compound treatment, stimulate cells with 6× anti-IgE. Mix wells with the cells and allow plates to incubate at 37° C. (5% CO2) for one hour. After 1 hour incubation, pellet cells (10 minutes, 1000 RPM) and collect 200 ul per well of the supernatant, being careful not to disturb pellet. Place the supernatant plate on ice. During the 7-hour step (see next) perform tryptase assay on supernatant that had been diluted 1:500. Resuspend cell pellet in 240 ul of CM media containing 0.5% DMSO and corresponding concentration of compound. Incubate CHMC cells for 7 hours at 37° C. (5% CO2). After incubation, pellet cells (1000 RPM, 10 minutes) and collect 225 ul per well and place in −80° C. until ready to perform ELISAS. ELISAS are performed on appropriately diluted samples (determined empirically for each donor cell population so that the sample measurement falls within the standard curve) following the supplier's instructions.

For assay [10] the test system is unchanged. The assay can be described thus: CHMC high cell density IgE activation: hexos (hexosaminidase) release. Format: cell-based. The conditions noted are these: anti-IgE activation. The procedure: as §2, §3
Assay [11] has the same test system. The assay can be described thus: CHMC high cell density IgE activation: tryptase. Format: cell-based. Particulars: anti-IgE activation. As for the experimental part: as §3
Assay [12] has the same test system. The assay can be described thus: CHMC high cell density IgE activation: histamine. The conditions noted are these: anti-IgE activation. The class given is cell-based. As for the experimental part:
as §2, §3

As for `CNC(=O)COc1cccc(Nc2ncc(F)c(Nc3ccc4c(n3)NC(=O)C(C)(C)O4)n2)c1` [R940347, N4-[(2,2-Dimethyl-4H-5-pyrido[1,4]oxazin-3-one)-6-yl]-5-fluoro-N2-[3-(methylaminocarbonylmethyleneoxy)phenyl]-2,4-pyrimidinediamine], in assay [1], the IC50 was 63 nM. Besides, in assay [2], the “FcγRI-mediated degranulation (in words)” value is reported as “inhibit FcγRI-mediated degranulation”.

As for `CNC(=O)COc1cccc(Nc2nc(Nc3cccc(O)c3)ncc2C(F)(F)F)c1` [R926741, N2-(3-Hydroxyphenyl)-5-trifluoromethyl-N4-[3-(N-methylamino)carbonylmethyleneoxyphenyl]-2,4-pyrimidinediamine], the IC50 in assay [1] was 2910 nM; in assay [3] it was over 10000 nM; in [4], 961 nM; in [5], 1020 nM; in [6], over 10000 nM; in [7] it was 772 nM. In addition, the IC50 in assay [8] stood at 537 nM.

Take `O=C1Nc2cc(Nc3ncc(F)c(Nc4ccc5c(c4)NC(=O)C(F)(F)O5)n3)ccc2OC1(F)F` [R940352, N2,N4-[(2,2-Difluoro-4H-benzo[1,4]oxazin-3-one)-6-yl]-5-fluoro-2,4-pyrimidinediamine]: the IC50 in assay [1] was 101 nM; in [3] it was over 10000 nM. Also, the “FcγRI-mediated degranulation (in words)” value in [2] is reported as “inhibit FcγRI-mediated degranulation”.

For the compound `CNC(=O)COc1cccc(Nc2ncc(F)c(Nc3ccc4c(c3)NC(=O)C(F)(F)O4)n2)c1` [R921303, N4-[(2,2-Difluoro-4H-benzo[1,4]oxazin-3-one)-6-yl]-5-fluoro-N2-[3-(methylaminocarbonylmethyleneoxy)phenyl]-2,4-pyrimidinediamine], the “FcγRI-mediated degranulation (in words)” value in [2] was “inhibit FcγRI-mediated degranulation”.

Turning to `Fc1cnc(Nc2cccc(OCCN3CCOCC3)c2)nc1Nc1ccc2c(c1)OCCO2` [R926486, N4-(3,4-Ethylenedioxyphenyl)-5-fluoro-N2-[3-[2-(N-morpholino)ethyleneoxy]phenyl]-2,4-pyrimidinediamine], the figures for the IC50 in assay [1], in assay [3] and in assay [9] were 647 nM, 7400 nM and 455 nM, respectively.

`O=C(NC(CO)CO)c1cc2cc(Nc3ncc(F)c(Nc4ccc5c(c4)OCCO5)n3)ccc2o1` [R926785, N2-[2-(N-1,3-Dihydroxy-2-propylamino)carbonylbenzofuran-5-yl]-N4-(3,4-ethylenedioxyphenyl)-5-fluoro-2,4-pyrimidinediamine]: the IC50 was over 10000 nM in assay [3]; 989 nM in [4]; 561 nM in assay [5]; 1410 nM in assay [6]; 1310 nM in [7]; 513 nM in [8].

Regarding `CNC(=O)CNc1cccc(Nc2ncc(F)c(Nc3ccc4c(c3)OCCO4)n2)c1` [R950191], the IC50 in assay [1] was 178 nM; in assay [3], over 10000 nM; in [4] it was under 220 nM; in assay [5], over 2000 nM; in assay [6], 401 nM; in [7], under 220 nM. In assay [8], this compound registered an IC50 of under 220 nM.

As to `CNC(=O)COc1cccc(Nc2ncc(F)c(Nc3ccc(OC(F)(F)F)c(Cl)c3)n2)c1` [R920410, N4-(3-Chloro-4-trifluoromethoxyphenyl)-5-fluoro-N2-[3-(N-methylamino)carbonylmethyleneoxyphenyl]-2,4-pyrimidinediamine], the IC50 in [3] was over 10000 nM. Also, the “FcγRI-mediated degranulation (in words)” value in assay [2] is given as “inhibit FcγRI-mediated degranulation”.

For the compound `Cc1cc(Nc2ncc(F)c(Nc3ccc4c(c3)NC(=O)C(F)(F)O4)n2)cc(Cl)c1O` [R926971], the “FcγRI-mediated degranulation (in words)” value in [2] is “inhibit FcγRI-mediated degranulation”.

For `Cc1cc(Nc2nc(Nc3cccc(OCC(=O)N4CCOCC4)c3)ncc2F)cc(Cl)c1O` [R940265, N4-(3-Chloro-4-hydroxy-5-methylphenyl)-5-fluoro-N2-[3-(N-morpholino)carbonylmethyleneoxyphenyl]-2,4-pyrimidinediamine], the IC50 in [1] is 239 nM; in [3] it was over 10000 nM; in assay [4], 981 nM; in assay [5], 306 nM; in assay [6], 1210 nM; in assay [7], 1130 nM. Further, in [8], the IC50 was 486 nM.

For the compound `Oc1cccc(Nc2ncc(F)c(Nc3ccc(OCc4nc(-c5ccccc5)no4)cc3)n2)c1` [R935138, 5-Fluoro-N2-(3-hydroxyphenyl)-N4-[4-(3-phenyl-1,2,4-oxadiazol-5-yl)methyleneoxyphenyl]-2,4-pyrimidinediamine], the IC50 in assay [1] is 96 nM; in assay [3] it was 552 nM; in assay [4], under 220 nM; in assay [5] it was under 220 nM; in assay [6] it was 373 nM; in [7] it was 409 nM. Also, in [8], the IC50 was under 220 nM.

For the compound `CC(C)(C)c1cccc(Nc2nc(Nc3cccc(OCC(=O)NCC(O)CO)c3)ncc2F)c1` (stereo not shown) [R940277, N4-(3-tert-Butylphenyl)-N2-[3-(N-2,3-dihydroxypropylamino)carbonylmethyleneoxyphenyl]-5-fluoro-2,4-pyrimidinediamine], the IC50 in [3] is over 10000 nM; in assay [4] it was 279 nM; in assay [5], 315 nM; in [6], 625 nM; in assay [7], 262 nM; in assay [8], 181 nM.

`Cc1nc(COc2cccc(Nc3ncc(F)c(Nc4ccc5c(c4)OCCO5)n3)c2)no1` [R945128, N4-(3,4-Ethylenedioxyphenyl)-5-fluoro-N2-[3-(5-methyl-1,2,4-oxadiazol-3-yl)methyleneoxyphenyl]-2,4-pyrimidinediamine]: the IC50 in assay [3] was 8800 nM; in [10] it was 1280 nM; in assay [11] it was 1750 nM; in assay [12] it was 547 nM; in [9], over 2000 nM.

Take `CNC(=O)COc1cccc(Nc2ncc(F)c(Nc3cccc(C(C)(C)C)c3)n2)c1` [R940276, N4-(3-tert-Butylphenyl)-N2-[3-(N-methylamino)carbonylmethyleneoxyphenyl]-5-fluoro-2,4-pyrimidinediamine]: the IC50 in assay [1] was 211 nM; in [3], over 10000 nM; in assay [4] it was 136 nM; in assay [5], 73 nM; in assay [6] it was 332 nM; in assay [7] it was 251 nM. In [8], this compound yielded an IC50 of under 56 nM.
